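Grown in 96-well plates, cells were treated for 48 hours with each compound at five concentrations. Insufficient inhibition: endpoint recorded as highest concentration tested. Here, GI50 denotes the concentration required for 50% inhibition of growth.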 Active and inactive are the calls of the source. Rule as the data show it: active = GI50 up to about 1.1 µM and inactive = higher. A value given as a limit tells only on which side of the number the result lay.

Test systems include T47D; HOP-18; M19-MEL; XF498; Hs-578T; KM-20L2; RXF 631; SNB-78.
Common to all, as to test: NCI-60 cell line screen, 48 h

For the compound `COC1=CC(=O)c2c(c(COC(C)=O)cn2C)C1=O`, the GI50 in the assay with T47D is 0.736 µM (active).
In the case of `CC(=O)Oc1c(OC(C)=O)c(-c2ccc(O)c(O)c2)c(O)c(O)c1-c1ccc(O)cc1`, the GI50 in the assay with HOP-18 was > 100 µM (inactive); in the assay with M19-MEL, 24.4 µM (inactive); with XF498, 82.2 µM (inactive).
With `COc1nc(Cl)nc(N[C@H](C)c2c3ccccc3cc3ccccc23)n1`, the figures for the GI50 in the assay on Hs-578T and with T47D were 7.69 µM (inactive) and 1.99 µM (inactive), respectively.
Regarding `Cc1ccc(NC(=O)CC(=O)n2nc(-c3ccccc3)c(/N=N/c3ccccc3C(=O)O)c2-c2ccccc2)cc1`, the figures for the GI50 with KM-20L2, in the assay with M19-MEL and in the assay with RXF 631 were 84.7 µM (inactive), > 100 µM (inactive) and > 100 µM (inactive), respectively.
For `COc1ccc2oc3c(ccc[n+]3C)c(=O)c2c1`, the GI50 in the assay on Hs-578T and in the assay with T47D was > 100 µM (inactive) in each case.
Take `CCN(CC)CCCNC(=O)c1ccccc1Nc1c(Cl)cccc1Cl`: the GI50 was 2.56 µM (inactive) in the assay on KM-20L2, 3.28 µM (inactive) in the assay with M19-MEL, 15 µM (inactive) with SNB-78 and 2.26 µM (inactive) in the assay with XF498.
With `O=C1CN2Cc3cc(N4CCOCC4)ccc3N=C2N1`, the GI50 in the assay on Hs-578T is 23.8 µM (inactive); with T47D it was > 100 µM (inactive).
With `O=c1cnn(C/C=C/CP(=O)(O)O)c(=O)[nH]1`, the GI50 with Hs-578T and with T47D was > 100 µM (inactive) each time.
On to `CCOC(=O)C(C)OC(=O)c1ccc(C)cc1` (stereo not given), for which the GI50 in the assay on HOP-18 is > 100 µM (inactive); in the assay with KM-20L2, > 100 µM (inactive); with M19-MEL it was > 100 µM (inactive); in the assay on RXF 631 it was > 100 µM (inactive); in the assay with SNB-78 it was > 100 µM (inactive); in the assay with XF498, 84.3 µM (inactive).

The values above are taken from ChEMBL document CHEMBL1201862, “PubChem BioAssay data set” (2004).
